Experimental data taken from BindingDB's records for doi:10.1038/nchembio.137 (University of Texas Southwestern Medical Center, 2009).

molecular target: T1, Protein Wnt-2 (Mus musculus, UniProt P21552); experiment: Wnt Inhibition Assay; settings: pH 7.4; 4 °C
T1 sequence (P21552 whole entry): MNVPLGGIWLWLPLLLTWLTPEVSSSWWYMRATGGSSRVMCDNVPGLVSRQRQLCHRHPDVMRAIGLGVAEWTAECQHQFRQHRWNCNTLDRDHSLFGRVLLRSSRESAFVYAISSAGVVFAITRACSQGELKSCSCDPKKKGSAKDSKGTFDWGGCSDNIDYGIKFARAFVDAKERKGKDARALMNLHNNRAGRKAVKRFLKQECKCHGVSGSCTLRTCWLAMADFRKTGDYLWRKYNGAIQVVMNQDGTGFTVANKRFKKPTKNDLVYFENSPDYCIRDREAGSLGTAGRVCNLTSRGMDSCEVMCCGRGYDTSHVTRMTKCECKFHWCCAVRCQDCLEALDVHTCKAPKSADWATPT
From the text: Inhibition assay of Wnt response treated with exogenously supplied of Wnt protein ('exogenous Wnt' test)

Row | Structure (SMILES) | IC50 [nM]
1 | O=C(Nc1cccc2cccnc12)c1ccc(-n2c(O)c3c(c2O)[C@H]2C=C[C@@H]3C2)cc1 | 58
2 | N#Cc1ccccc1Cn1c(=O)n(C[C@H]2CC[C@H](C(=O)NCc3ccccc3)CC2)c(=O)c2ccccc21 [CID15993586] | 25
3 | Cc1cccc2nc(Cn3c(=O)n(C[C@H]4CC[C@H](C(=O)NCc5ccccc5)CC4)c(=O)c4ccccc43)cc(=O)n12 [CID15995771] | 40
4 | Cc1ccnc2c(NC(=O)c3ccc(-n4c(O)c5c(c4O)[C@H]4C=C[C@@H]5C4)cc3)cccc12 [CID25093486] | 27
